Reference: US7550425B2, “Diuretic peptide conjugates” (Zealand Pharma A/S, priority 2000, dated 2009)

Columns and labels:
mouse vas deferens = test: Mouse vas deferens assay: inhibition of electrically-induced contraction; conditions: cumulative addition; data not shown
From the text: The compounds of the present invention are pharmacologically active, e.g. as nociceptin agonists or partial agonists, and a useful method of showing activity is described by Hughes J., Kosterlitz H. W., Leslie F. M.: Effect of morphine on adrenergic transmission in the mouse vas deferens. Assessment of agonist and antagonist potencies of narcotic analgesics^[4]. The isolated electrically stimulated mouse vas deferens preparation has been widely used to evaluate the functional pharmacological actions of opioid agonists and antagonists in vitro^[5].
The vas deferens from male NMRI albino mice weighing 30-40 g were placed in a SCHULER organ bath Type 809, Hugo Sachs Elektronik, Germany, and perfused with a 37° C., modified Krebs solution (NaCl 6,9 g/L, KCl 0.35 g/L, KH2PO4 0.16 g/L, NaHCO3 2.1 g/L, Glucose H2O 2.0 g/L, CaCl2 2.52 mL/L). The solution was gassed with carbogen (95% O2 and 5% CO2) throughout the experiment. The tissue was electrically stimulated through two silver electrodes directly in the organ bath using a HSE Stimulator I Type 215. Stimulation of the tissue was performed by applying a supramaximal voltage (15 Volts) in trains of 10 square pulses every 60 s, each of 1 ms duration with a frequency of […]. Concentration-response curves were performed by adding test substances that relax mouse vas deferens smooth muscles cumulatively to the organ baths. The test substances used in the assay were nociceptin in an isotonic saline solution, Compound 1 (as the trifluoroacetate in an isotonic saline solution), Compound 2 (as the trifluoroacetate in an isotonic saline solution), and the hexapeptide Ac-RYYRWK-NH2 (SEQ ID NO: 1) (as the trifluoroacetate in an isotonic saline solution).

cirrhotic rats = test: Renal responses in rats with liver cirrhosis induced by common bile duct ligation and sham-operated controls; format: in vivo, rat; conditions: i.v. bolus 65 nmol/kg
Procedure: Rats with liver cirrhosis induced by common bile duct ligation develop avid sodium and water retention and ascites within 2-4 weeks. The disturbed sodium and water balance in cirrhotic rats is in agreement with the pivotal clinical findings of edema and ascites in patients with liver cirrhosis. To examine the efficacy of Compound 1 in an experimental model of an edema-forming state, the diuretic response to an acute i.v. bolus injection of Compound 1 (65 nmol/kg) was evaluated in rats with liver cirrhosis induced by common bile duct ligation 4 weeks earlier. Prior to the experiments, rats were instrumented with chronic catheters in the urinary bladder, and in the femoral vein and artery. Renal responses to Compound 1 were compared with responses in sham-operated control rats. […] Relative changes in urine flow rate, sodium and potassium excretion after i.v. administration of 65 nmol/kg in sham-operated control animals are summarized in FIG. 7.
Changes in urine flow rate, free water clearance, fractional sodium excretion and fractional potassium excretion after i.v. administration of 65 nmol/kg in sham-operated control and cirrhotic animals are summarized in FIG. 8.

[1] = tested on: chronically instrumented rats; test: Twelve-hour i.v. infusion with servo-controlled volume replacement (acute tachyphylaxis); format: in vivo, rat
Procedure: To evaluate whether acute tachyphylaxis develops during i.v. treatment with Compound 1, an additional series of experiments were performed. Chronically instrumented rats were infused with vehicle (150 mM glucose) or Compound 1 (1 nmol/kg/min) for twelve hours while water balance was maintained using a computer-driven, servo-controlled i.v. volume replacement system^[2]. Acute tachyphylaxis has been observed during repeated i.v. dosing of the vasopressin antagonist SKF 101926 in conscious dogs^[12] and tolerance during chronic treatment has been reported for the selective V2-receptor antagonist OPC-31260 ^[13].

[2] = tested on: opioid (non-selective opiate, δ, κ, μ), vasopressin (V1a, V1b, V2) and 40 other receptor, uptake and ion channel binding sites; test: Receptor, uptake and ion channel binding panel; conditions: 0.1, 10 and 1000 nM (opioid, vasopressin); 10 μM (other sites)
Procedure: In addition, Compound 1 has been tested in 5 opioid (non-selective opiate, δ, κ, μ, &ORL1), 3 vasopressin (V1a, V1b and V2) receptor binding assays at 0.1, 10, and 1000 nM as well as in 40 different receptor, uptake, and ion channel binding sites (A1, A2, α1, α2, β1, NE uptake, AT1, BZD, B2 (h), CCKA (˜CCK1), D1, D2, ETA(h), GABA, NMDA, H1, M, NK1(h), Y, N, opiate, PCP, 5-HT, 5-HT1B, 5-HT2A, 5-HT uptake, σ, V1) at 10 μM.

[3] = In vitro stability in heparin stabilised mouse plasma; format: in vitro ADME; conditions: heparinised mouse plasma, 37° C., read-out: half-life t½ of degradation
Procedure: Degradation of peptides is almost exclusively seen in the presence of enzymes, e.g. in the bloodstream. An important feature of a putative drug is whether it is quickly degraded in vivo or whether it is able to conduct its effects over a longer period of time. To be able to examine the stability of the peptide conjugates of the present invention degradation was tested in heparin stabilised mouse plasma (obtained from Harlan Seralab, UK).
The stability studies were run in triplicate. 100 μL of a 1 mg/mL solution of the test compound (peptide conjugate) was added to an Eppendorf tube, containing 900 μL plasma, incubated at 37° C. Immediately after addition, a sample of 100 μL was removed and added to an Eppendorf tube, containing 10 μL of extraction solution (50% TFA (trifluoroacetic acid) in MeCN, v/v). This sample constitutes t=0. […] The samples are centrifuged at 20,000×g, and the supernatant was transferred to vials and analysed by high-performance liquid chromatography (HPLC).
The analysis was performed on a HP1100 HPLC with a quaternary pump. The column used was a Vydac 201SP5215, and the apparatus comprises an autosampler, a column oven, a variable UV detector and a fluorescence detector. […] These values were transferred to Microsoft Excel, where half-lives (t½) and rate constant (kobs) for Ac-RYYRWK-NH2 (SEQ ID NO: 1) and Compound 1 were determined by fitting to the equation.

[4] = cirrhotic and sham-operated rats

Ac-RYYRWKKKKKKK-NH2 [Compound 1, Ac-RYYRWKKKKKKK-NH2]
potency order for inhibition of electrically-induced contraction of the mouse vas deferens (mouse vas deferens): nociceptin>Compound 1=Compound 2>>Ac-RYYRWK-NH2 | renal responses, cirrhotic versus control rats (cirrhotic rats): renal responses were similar in cirrhotic and control rats | fractional excretion of sodium and potassium (cirrhotic rats; FIG. 8): decrease in fractional excretion of sodium and potassium | urine flow rate (cirrhotic rats; FIG. 8): marked increase in urine flow rate | glomerular filtration rate (cirrhotic rats; [4]): absence of changes in the glomerular filtration rate | urinary excretion of sodium and potassium (cirrhotic rats; [4]): decrease in urinary excretion of sodium and potassium | tubular water reabsorption and haemodynamics ([1]; i.v. infusion 1 nmol/kg/min): inhibited tubular water reabsorption without concomitant changes in arterial blood pressure, heart rate, renal blood flow, glomerular filtration rate or proximal tubular reabsorption | duration of aquaretic response ([1]; i.v. infusion 1 nmol/kg/min for twelve hours): sustained aquaretic response lasting the entire 12-hour infusion period | acute tachyphylaxis ([1]; i.v. infusion 1 nmol/kg/min, 12 hours): no acute tachyphylaxis develops within the first 12 hours of treatment | magnitude of aquaretic response versus OPC-31260 ([1]; i.v. infusion 1 nmol/kg/min, FIG. 9): aquaretic response of similar magnitude to the response seen with maximal doses of the selective vasopressin type-2 receptor antagonist OPC-31260 | binding to other receptors than the ORL1 receptor [2]: none or only weak binding to other receptors than the ORL1 receptor | half-life at 0.1 mg/mL [3]: 5.97 h
